Data taken from the CheMixHub viscosity set.
± gives the uncertainty stated by the source.

Assay: xn = mol fraction of the nth substance listed

Compound `c1ccccc1` + CCO has a viscosity (293.15 K, 101 kPa, x1 = 0.16) of 1.017 ± 0.027 mPa·s, a viscosity (293.15 K, 101 kPa, x1 = 0.37) of 0.81 ± 0.021 mPa·s and a viscosity (293.15 K, 101 kPa, x1 = 0.64) of 0.657 ± 0.017 mPa·s. It also gave a viscosity (298.15 K, 101 kPa, x1 = 0.1259) of 0.916 ± 0.009 mPa·s, a viscosity (298.15 K, 101 kPa, x1 = 0.16) of 0.926 ± 0.025 mPa·s and a viscosity (298.15 K, 101 kPa, x1 = 0.2547) of 0.805 ± 0.008 mPa·s. For the same compound, the viscosity (298.15 K, 101 kPa, x1 = 0.37) was 0.759 ± 0.02 mPa·s, the viscosity (298.15 K, 101 kPa, x1 = 0.4079) was 0.708 ± 0.007 mPa·s and the viscosity (298.15 K, 101 kPa, x1 = 0.554) was 0.643 ± 0.007 mPa·s. It also gave a viscosity (298.15 K, 101 kPa, x1 = 0.64) of 0.624 ± 0.017 mPa·s, a viscosity (298.15 K, 101 kPa, x1 = 0.676) of 0.611 ± 0.006 mPa·s and a viscosity (298.15 K, 101 kPa, x1 = 0.779) of 0.583 ± 0.006 mPa·s. For the same compound, the viscosity (298.15 K, 101 kPa, x1 = 0.842) was 0.584 ± 0.006 mPa·s, the viscosity (298.15 K, 101 kPa, x1 = 0.91) was 0.587 ± 0.006 mPa·s and the viscosity (298.15 K, 101.33 kPa, x1 = 0.0518) was 1.013 ± 0.008 mPa·s. The viscosity (298.15 K, 101.33 kPa, x1 = 0.1059) was 0.959 ± 0.006 mPa·s, the viscosity (298.15 K, 101.33 kPa, x1 = 0.1078) was 0.955 ± 0.008 mPa·s and the viscosity (298.15 K, 101.33 kPa, x1 = 0.1897) was 0.88 ± 0.006 mPa·s. For the same compound, the viscosity (298.15 K, 101.33 kPa, x1 = 0.1934) was 0.884 ± 0.007 mPa·s, the viscosity (298.15 K, 101.33 kPa, x1 = 0.2966) was 0.794 ± 0.005 mPa·s and the viscosity (298.15 K, 101.33 kPa, x1 = 0.3308) was 0.776 ± 0.007 mPa·s. The viscosity (298.15 K, 101.33 kPa, x1 = 0.3795) was 0.728 ± 0.006 mPa·s, the viscosity (298.15 K, 101.33 kPa, x1 = 0.3983) was 0.731 ± 0.005 mPa·s and the viscosity (298.15 K, 101.33 kPa, x1 = 0.4887) was 0.681 ± 0.005 mPa·s. The viscosity (298.15 K, 101.33 kPa, x1 = 0.5514) was 0.651 ± 0.006 mPa·s, the viscosity (298.15 K, 101.33 kPa, x1 = 0.5729) was 0.647 ± 0.006 mPa·s and the viscosity (298.15 K, 101.33 kPa, x1 = 0.5993) was 0.638 ± 0.004 mPa·s. The viscosity (298.15 K, 101.33 kPa, x1 = 0.6579) was 0.607 ± 0.005 mPa·s, the viscosity (298.15 K, 101.33 kPa, x1 = 0.6973) was 0.61 ± 0.004 mPa·s and the viscosity (298.15 K, 101.33 kPa, x1 = 0.7073) was 0.588 ± 0.005 mPa·s. For the same compound, the viscosity (298.15 K, 101.33 kPa, x1 = 0.7987) was 0.59 ± 0.004 mPa·s, the viscosity (298.15 K, 101.33 kPa, x1 = 0.8126) was 0.567 ± 0.005 mPa·s and the viscosity (298.15 K, 101.33 kPa, x1 = 0.8995) was 0.582 ± 0.004 mPa·s. It also gave a viscosity (298.15 K, 101.33 kPa, x2 = 0.0192) of 0.567 ± 0.005 mPa·s, a viscosity (298.15 K, 101.33 kPa, x2 = 0.113) of 0.645 ± 0.0052 mPa·s and a viscosity (298.15 K, 101.33 kPa, x2 = 0.2) of 0.597 ± 0.012 mPa·s. For the same compound, the viscosity (298.15 K, 101.33 kPa, x2 = 0.306) was 0.642 ± 0.0051 mPa·s, the viscosity (298.15 K, 101.33 kPa, x2 = 0.5) was 0.712 ± 0.0057 mPa·s and the viscosity (298.15 K, 101.33 kPa, x2 = 0.692) was 0.816 ± 0.0065 mPa·s. It also gave a viscosity (298.15 K, 101.33 kPa, x2 = 0.892) of 0.977 ± 0.0078 mPa·s, a viscosity (298.16 K, 101 kPa, x2 = 0.1) of 0.583 ± 0.005 mPa·s and a viscosity (298.16 K, 101 kPa, x2 = 0.2) of 0.587 ± 0.005 mPa·s. It also gave a viscosity (298.16 K, 101 kPa, x2 = 0.3) of 0.605 ± 0.005 mPa·s, a viscosity (298.16 K, 101 kPa, x2 = 0.4) of 0.635 ± 0.005 mPa·s and a viscosity (298.16 K, 101 kPa, x2 = 0.5) of 0.675 ± 0.006 mPa·s. For the same compound, the viscosity (298.16 K, 101 kPa, x2 = 0.6) was 0.723 ± 0.006 mPa·s, the viscosity (298.16 K, 101 kPa, x2 = 0.7) was 0.782 ± 0.007 mPa·s and the viscosity (298.16 K, 101 kPa, x2 = 0.8) was 0.861 ± 0.007 mPa·s. For the same compound, the viscosity (298.16 K, 101 kPa, x2 = 0.9) was 0.959 ± 0.008 mPa·s, the viscosity (303 K, 100 kPa, x2 = 0.4) was 0.596 ± 0.005 mPa·s and the viscosity (303.15 K, 101 kPa, x1 = 0.1259) was 0.841 ± 0.009 mPa·s. The viscosity (303.15 K, 101 kPa, x1 = 0.16) was 0.839 ± 0.022 mPa·s, the viscosity (303.15 K, 101 kPa, x1 = 0.2547) was 0.737 ± 0.008 mPa·s and the viscosity (303.15 K, 101 kPa, x1 = 0.37) was 0.681 ± 0.018 mPa·s. It also gave a viscosity (303.15 K, 101 kPa, x1 = 0.4079) of 0.65 ± 0.007 mPa·s, a viscosity (303.15 K, 101 kPa, x1 = 0.554) of 0.593 ± 0.006 mPa·s and a viscosity (303.15 K, 101 kPa, x1 = 0.64) of 0.571 ± 0.015 mPa·s. It also gave a viscosity (303.15 K, 101 kPa, x1 = 0.676) of 0.564 ± 0.006 mPa·s, a viscosity (303.15 K, 101 kPa, x1 = 0.779) of 0.544 ± 0.006 mPa·s and a viscosity (303.15 K, 101 kPa, x1 = 0.842) of 0.546 ± 0.006 mPa·s. The viscosity (303.15 K, 101 kPa, x1 = 0.91) was 0.547 ± 0.006 mPa·s, the viscosity (308 K, 100 kPa, x2 = 0.4) was 0.551 ± 0.004 mPa·s and the viscosity (308.15 K, 101 kPa, x1 = 0.1259) was 0.769 ± 0.008 mPa·s. It also gave a viscosity (308.15 K, 101 kPa, x1 = 0.16) of 0.772 ± 0.021 mPa·s, a viscosity (308.15 K, 101 kPa, x1 = 0.2547) of 0.675 ± 0.007 mPa·s and a viscosity (308.15 K, 101 kPa, x1 = 0.37) of 0.623 ± 0.017 mPa·s. It also gave a viscosity (308.15 K, 101 kPa, x1 = 0.4079) of 0.598 ± 0.006 mPa·s, a viscosity (308.15 K, 101 kPa, x1 = 0.554) of 0.548 ± 0.006 mPa·s and a viscosity (308.15 K, 101 kPa, x1 = 0.64) of 0.538 ± 0.014 mPa·s. The viscosity (308.15 K, 101 kPa, x1 = 0.676) was 0.526 ± 0.006 mPa·s, the viscosity (308.15 K, 101 kPa, x1 = 0.779) was 0.511 ± 0.005 mPa·s and the viscosity (308.15 K, 101 kPa, x1 = 0.842) was 0.511 ± 0.005 mPa·s. It also gave a viscosity (308.15 K, 101 kPa, x1 = 0.91) of 0.51 ± 0.005 mPa·s, a viscosity (313 K, 100 kPa, x2 = 0.4) of 0.528 ± 0.004 mPa·s and a viscosity (313.15 K, 101 kPa, x1 = 0.1259) of 0.705 ± 0.007 mPa·s. For the same compound, the viscosity (313.15 K, 101 kPa, x1 = 0.16) was 0.699 ± 0.019 mPa·s, the viscosity (313.15 K, 101 kPa, x1 = 0.2547) was 0.622 ± 0.007 mPa·s and the viscosity (313.15 K, 101 kPa, x1 = 0.37) was 0.567 ± 0.015 mPa·s. For the same compound, the viscosity (313.15 K, 101 kPa, x1 = 0.4079) was 0.553 ± 0.006 mPa·s, the viscosity (313.15 K, 101 kPa, x1 = 0.5) was 0.5326 ± 0.0079 mPa·s and the viscosity (313.15 K, 101 kPa, x1 = 0.554) was 0.51 ± 0.005 mPa·s. For the same compound, the viscosity (313.15 K, 101 kPa, x1 = 0.64) was 0.5 ± 0.013 mPa·s, the viscosity (313.15 K, 101 kPa, x1 = 0.676) was 0.488 ± 0.005 mPa·s and the viscosity (313.15 K, 101 kPa, x1 = 0.7) was 0.4812 ± 0.0072 mPa·s. It also gave a viscosity (313.15 K, 101 kPa, x1 = 0.779) of 0.478 ± 0.005 mPa·s, a viscosity (313.15 K, 101 kPa, x1 = 0.842) of 0.481 ± 0.005 mPa·s and a viscosity (313.15 K, 101 kPa, x1 = 0.91) of 0.479 ± 0.005 mPa·s. It also gave a viscosity (313.15 K, 101.33 kPa, x2 = 0.113) of 0.525 ± 0.0042 mPa·s, a viscosity (313.15 K, 101.33 kPa, x2 = 0.306) of 0.515 ± 0.0041 mPa·s and a viscosity (313.15 K, 101.33 kPa, x2 = 0.5) of 0.555 ± 0.0044 mPa·s. For the same compound, the viscosity (313.15 K, 101.33 kPa, x2 = 0.692) was 0.629 ± 0.005 mPa·s, the viscosity (313.15 K, 101.33 kPa, x2 = 0.892) was 0.748 ± 0.006 mPa·s and the viscosity (318 K, 100 kPa, x2 = 0.4) was 0.477 ± 0.004 mPa·s. It also gave a viscosity (318.15 K, 101 kPa, x1 = 0.1259) of 0.646 ± 0.007 mPa·s, a viscosity (318.15 K, 101 kPa, x1 = 0.2547) of 0.573 ± 0.006 mPa·s and a viscosity (318.15 K, 101 kPa, x1 = 0.4079) of 0.514 ± 0.005 mPa·s. The viscosity (318.15 K, 101 kPa, x1 = 0.554) was 0.475 ± 0.005 mPa·s, the viscosity (318.15 K, 101 kPa, x1 = 0.676) was 0.458 ± 0.005 mPa·s and the viscosity (318.15 K, 101 kPa, x1 = 0.779) was 0.447 ± 0.005 mPa·s. It also gave a viscosity (318.15 K, 101 kPa, x1 = 0.842) of 0.451 ± 0.005 mPa·s, a viscosity (318.15 K, 101 kPa, x1 = 0.91) of 0.451 ± 0.005 mPa·s and a viscosity (323.15 K, 101.33 kPa, x2 = 0.2) of 0.424 ± 0.0085 mPa·s.
